The values that follow come from patent US20050197350A1, “Novel quinoline, tetrahydroquinazoline, and pyrimidine derivatives and methods of treatment related to the use thereof” (TAISHO PHARMACEUTICAL CO., LTD., priority 2003, published 2005).

The experiment deals with MCH receptors. Put plainly: MCH receptor activity class (method not given).
The mark [1] stands for this setting: MCH receptor, class by percent of control at 10^-7 M or IC50.
Setting [2] is: class by percent of control at 10^-7 M or IC50.
[3] abbreviates: activity class per percent of control at 10^-7 M or IC50.
[4] abbreviates: class 1-3 by percent of control at 10^-7 M or IC50.
The mark [5] stands for this setting: activity class 1-3: percent of control at 10^-7 M or IC50.

For the compound `CN(C)c1nc(N[C@H]2CC[C@@H](NC(=S)Nc3ccc(Br)c(Cl)c3)CC2)nc2c1CCCC2` [compound 2046], under setting [1], the class was 3 (Class 3 The value of percent of control at 10^−7 M was more than 60% or the value of IC50 was more than 200 nM.).

Consider `CN(C)c1nc(N[C@H]2CC[C@@H](NC(=O)c3ccc(Br)o3)CC2)nc2c1CCCC2` [compound 970, 5-bromo-N-(cis-4-{[4-(dimethylamino)-5,6,7,8-tetrahydroquinazolin-2-yl]amino}cyclohexyl)-2-furamide], for which the class under setting [2] was 1 (Class 1: The value of percent of control at 10^−7 M was less than 40% or the value of IC50 was less than 50 nM.). As to `Cc1ccc(C(=O)c2ccccc2C(=O)N[C@H]2CC[C@@H](Nc3nc4c(c(N(C)C)n3)CCCC4)CC2)cc1` [compound 1035], the class under setting [3] is listed as 3 (Class 3 The value of percent of control at 10^−7 M was more than 60% or the value of IC50 was more than 200 nM.).

Regarding `CCCN(CCC)S(=O)(=O)c1ccc(C(=O)N[C@H]2CC[C@@H](Nc3nccc(N(C)C)n3)CC2)cc1` [compound 356, N-(cis-4-{[4-(dimethylamino)pyrimidin-2-yl]amino}cyclohexyl)-4-[(dipropylamino)sulfonyl]benzamide], under setting [2], the class was 1 (Class 1: The value of percent of control at 10^−7 M was less than 40% or the value of IC50 was less than 50 nM.). Turning to `COc1cc(Br)cc(CN[C@H]2CC[C@@H](Nc3nccc(N(C)C)n3)CC2)c1O` [compound 1212], under setting [2], the class is recorded as 3 (Class 3 The value of percent of control at 10^−7 M was more than 60% or the value of IC50 was more than 200 nM.).

With `CN(C)c1nc(N[C@H]2CC[C@@H](CNC(=O)c3cc(F)cc(C(F)(F)F)c3)CC2)nc2c1CCCC2` [compound 600], under setting [4], the class was 3 (Class 3 The value of percent of control at 10^−7 M was more than 60% or the value of IC50 was more than 200 nM.).

Take `Cc1ccc(NC(=S)N[C@H]2CC[C@@H](Nc3cc(N(C)C)c4ccccc4n3)CC2)c(Br)c1` [compound 2278]: under setting [2], the class was 3 (Class 3 The value of percent of control at 10^−7 M was more than 60% or the value of IC50 was more than 200 nM.). Turning to `CN(C)c1ccnc(N[C@H]2CC[C@@H](NC(=O)Cc3ccc(F)cc3Cl)CC2)n1` [compound 814], the class under setting [2] is reported as 3 (Class 3 The value of percent of control at 10^−7 M was more than 60% or the value of IC50 was more than 200 nM.). `CN(C)c1nc(N[C@H]2CC[C@@H](NC(=O)Nc3ccc(F)cc3)CC2)nc2c1CCCC2` [compound 1664]: under setting [5], the class is reported as 2 (Class 2: The value of percent of control at 10^−7 M was from 40% to 60% or the value of IC′50 was from 50 nM to 200 nM.).

`CC(NC(=O)N[C@H]1CC[C@@H](Nc2nc3c(c(N(C)C)n2)CCCC3)CC1)c1ccc(Br)cc1` (relative stereo) [compound 1728, N-[1-(4-bromophenyl)ethyl]-N′-(cis-4-{[4-(dimethylamino)-5,6,7,8-tetrahydroquinazolin-2-yl]amino}cyclohexyl)urea]: the class under setting [2] was 2 (Class 2: The value of percent of control at 10^−7 M was from 40% to 60% or the value of IC′50 was from 50 nM to 200 nM.). Take `CN(C)c1ccnc(N[C@H]2CC[C@@H](CNC(=O)c3c(Cl)cc(Cl)cc3Cl)CC2)n1` [compound 451]: the class under setting [4] was 2 (Class 2: The value of percent of control at 10^−7 M was from 40% to 60% or the value of IC′50 was from 50 nM to 200 nM.). Regarding `CCCCCC(=O)N[C@H]1CC[C@@H](Nc2cc(N(C)C)c3ccccc3n2)CC1` [compound 40], under setting [1], the class is 3 (Class 3 The value of percent of control at 10^−7 M was more than 60% or the value of IC50 was more than 200 nM.). Take `CN(C)c1cc(N[C@H]2CC[C@@H](CNC(=O)c3cc(C(F)(F)F)cc(C(F)(F)F)c3)CC2)nc2ccccc12` [compound 205, N-[(cis-4-{[4-(dimethylamino)quinolin-2-yl]amino}cyclohexyl)methyl]-3,5-bis(trifluoromethyl)benzamide]: the class under setting [1] is listed as 3 (Class 3 The value of percent of control at 10^−7 M was more than 60% or the value of IC50 was more than 200 nM.). `CN(C)c1nc(N[C@H]2CC[C@@H](NC(=S)Nc3ccc(Cl)cc3Cl)CC2)nc2c1CCCC2` [compound 1739]: under setting [2], the class was 3 (Class 3 The value of percent of control at 10^−7 M was more than 60% or the value of IC50 was more than 200 nM.).

For the compound `CN(C)c1nc(N[C@H]2CC[C@@H](NC(=O)NC(=O)c3ccccc3)CC2)nc2c1CCCC2` [compound 1809], the class under setting [2] is listed as 3 (Class 3 The value of percent of control at 10^−7 M was more than 60% or the value of IC50 was more than 200 nM.). In the case of `Cc1cc([N+](=O)[O-])ccc1NC(=O)N[C@H]1CC[C@@H](Nc2nccc(N(C)C)n2)CC1` [compound 2234], the class under setting [2] is 3 (Class 3 The value of percent of control at 10^−7 M was more than 60% or the value of IC50 was more than 200 nM.). Take `CN(C)c1nc(N[C@H]2CC[C@@H](NC(=O)Nc3cccc(Cl)c3)CC2)nc2c1CCCC2` [compound 1814]: the class under setting [2] is 3 (Class 3 The value of percent of control at 10^−7 M was more than 60% or the value of IC50 was more than 200 nM.). Take `CN(C)c1ccnc(N[C@H]2CC[C@@H](NC(=O)Oc3ccc(Br)cc3)CC2)n1` [compound 1623]: the class under setting [5] was 3 (Class 3 The value of percent of control at 10^−7 M was more than 60% or the value of IC50 was more than 200 nM.). On to `CN(C)c1cc(N[C@H]2CC[C@@H](CNC(=O)c3ccc(Br)cc3)CC2)nc2ccccc12` [compound 149], for which the class under setting [1] was 3 (Class 3 The value of percent of control at 10^−7 M was more than 60% or the value of IC50 was more than 200 nM.). For `Cc1cc(Br)cc(C)c1NC(=O)NC[C@H]1CC[C@@H](Nc2nc3c(c(N(C)C)n2)CCCC3)CC1` [compound 2482, N-(4-bromo-2,6-dimethylphenyl)-N′-[(cis-4-{[4-(dimethylamino)-5,6,7,8-tetrahydroquinazolin-2-yl]amino}cyclohexyl)methyl]urea], under setting [2], the class is listed as 1 (Class 1: The value of percent of control at 10^−7 M was less than 40% or the value of IC50 was less than 50 nM.). With `CN(C)c1nc(N[C@H]2CC[C@@H](NC(=O)c3ccccc3C(=O)c3cccc4ccccc34)CC2)nc2c1CCCC2` [compound 1025], under setting [3], the class is 3 (Class 3 The value of percent of control at 10^−7 M was more than 60% or the value of IC50 was more than 200 nM.). As to `COc1ccc(NC(=S)N[C@H]2CC[C@@H](Nc3nc4c(c(N(C)C)n3)CCCC4)CC2)cc1` [compound 1949], the class under setting [1] was 3 (Class 3 The value of percent of control at 10^−7 M was more than 60% or the value of IC50 was more than 200 nM.).

Take `CN(C)c1cc(N[C@H]2CC[C@@H](NCCc3c(-c4ccccc4)[nH]c4ccccc34)CC2)nc2ccccc12` [compound 1459]: the class under setting [2] was 2 (Class 2: The value of percent of control at 10^−7 M was from 40% to 60% or the value of IC′50 was from 50 nM to 200 nM.). As to `CN(C)c1nc(N[C@H]2CC[C@@H](NC(=S)Nc3ccccc3C(F)(F)F)CC2)nc2c1CCCC2` [compound 1969], the class under setting [1] was 3 (Class 3 The value of percent of control at 10^−7 M was more than 60% or the value of IC50 was more than 200 nM.).

Consider `CN(C)c1nc(N[C@H]2CC[C@@H](NC(=S)NC3CC3)CC2)nc2c1CCCC2` [compound 2029], for which the class under setting [1] is 3 (Class 3 The value of percent of control at 10^−7 M was more than 60% or the value of IC50 was more than 200 nM.). As for `CN(C)c1nc(N[C@H]2CC[C@@H](NC(=O)Nc3c(F)cccc3F)CC2)nc2c1CCCC2` [compound 1820], the class under setting [2] is on record as 3 (Class 3 The value of percent of control at 10^−7 M was more than 60% or the value of IC50 was more than 200 nM.). Regarding `CN(C)c1cc(N[C@H]2CC[C@@H](CNC(=O)CSc3ccccc3)CC2)nc2ccccc12` [compound 190], the class under setting [1] is 3 (Class 3 The value of percent of control at 10^−7 M was more than 60% or the value of IC50 was more than 200 nM.). For `Cc1ccc2occ(CN[C@H]3CC[C@@H](Nc4cc(N(C)C)c5ccccc5n4)CC3)c(=O)c2c1` [compound 1107], the class under setting [3] is listed as 3 (Class 3 The value of percent of control at 10^−7 M was more than 60% or the value of IC50 was more than 200 nM.). `CN(C)c1ccnc(N[C@H]2CC[C@@H](NCc3c[nH]c4ccccc34)CC2)n1` [compound 1207]: the class under setting [2] was 3 (Class 3 The value of percent of control at 10^−7 M was more than 60% or the value of IC50 was more than 200 nM.).

For the compound `Cc1cc(C)c2occ(CN[C@H]3CC[C@@H](Nc4cc(N(C)C)c5ccccc5n4)CC3)c(=O)c2c1` [compound 1108], under setting [3], the class is recorded as 3 (Class 3 The value of percent of control at 10^−7 M was more than 60% or the value of IC50 was more than 200 nM.).

With `CCOc1ccccc1CNC[C@H]1CC[C@@H](Nc2cc(N(C)C)c3ccccc3n2)CC1` [compound 1123], under setting [3], the class is 2 (Class 2: The value of percent of control at 10^−7 M was from 40% to 60% or the value of IC′50 was from 50 nM to 200 nM.). On to `CCOc1cc(CNC[C@H]2CC[C@@H](Nc3nc4c(c(N(C)C)n3)CCCC4)CC2)ccc1OC` [compound 1376], for which the class under setting [2] is given as 1 (Class 1: The value of percent of control at 10^−7 M was less than 40% or the value of IC50 was less than 50 nM.). As to `CN(C)c1nc(N[C@H]2CC[C@@H](NC(=S)Nc3cccc(C(F)(F)F)c3)CC2)nc2c1CCCC2` [compound 1957], the class under setting [1] was 3 (Class 3 The value of percent of control at 10^−7 M was more than 60% or the value of IC50 was more than 200 nM.). With `COc1ccc(NC(=S)N[C@H]2CC[C@@H](Nc3nc4c(c(N(C)C)n3)CCCC4)CC2)c(OC)c1` [compound 1740, N-(2,4-dimethoxyphenyl)-N′-(cis-4-{[4-(dimethylamino)-5,6,7,8-tetrahydroquinazolin-2-yl]amino}cyclohexyl)thiourea], under setting [2], the class is reported as 1 (Class 1: The value of percent of control at 10^−7 M was less than 40% or the value of IC50 was less than 50 nM.). Regarding `Cc1cc(N(C)C)nc(N[C@H]2CC[C@@H](NC(=O)c3ccc(F)c(Cl)c3)CC2)n1` [compound 2963], the class (class by percent of control at 10^−7 M or IC50) was 1 (Class 1: The value of percent of control at 10^−7 M was less than 40% or the value of IC50 was less than 50 nM.).
